Like-named read-outs stand apart in the source and are kept apart here.
How the values were obtained:
[1] = molecular target: SARS-CoV-2 NSP3 macrodomain (Mac1), P43 crystal form (Severe acute respiratory syndrome coronavirus 2, UniProt P0DTD1); format: binding; details: for 1-BDC: PanDDA background density correction; for Pandda run, overall: Hit / Pandda run, overall: Modeled / PanDDA run, DMSO background map: 1-BDC / PanDDA run, DMSO background map: Hit: crystal soak 10 mM; for Pandda run, overall: Hit / Pandda run, overall: Modeled: P43 crystals; for Total number of conformations: ligand conformations modeled in Mac1 crystal structure; for 2*(1-BDC) (%): occupancy estimate from PanDDA 1-BDC; for X-ray crystallography: Binding site: site where the ligand is bound in the X-ray crystal structure; for X-ray crystal structure: X-ray crystal structure determined (TRUE); for Binding site: site of ligand in X-ray crystal structure
[2] = molecular target: SARS-CoV-2 NSP3 macrodomain (Mac1) (Severe acute respiratory syndrome coronavirus 2, UniProt P0DTD1); assay: biochemical; format: binding; details: for SARS CoV-2 macrodomain HTRF assay: Hillslope: dose-response fit
[3] = Single dose, concentration 200 μM, read-out: SARS CoV-2 macrodomain HTRF assay: Average % competition
[4] = preliminary screen, compound at 200 μM, mean of 3-4 technical replicates, read-out: % competition in HTRF assay
[5] = SARS CoV-2 macrodomain HTRF assay, dose-response
[6] = Single dose, concentration 200 μM, read-out: Average % competition
[7] = preliminary screen, compound at 200 μM, mean of 3-4 technical replicates

O[C@H]1CC[C@@H]2CCN(c3ncnc4[nH]ccc34)[C@@H]21 [AVI-3664]
1-BDC [1]: 0.16 | Pandda run, overall: Hit [1]: TRUE | Pandda run, overall: Modeled [1]: TRUE | PanDDA run, DMSO background map: 1-BDC [1]: 0.16 | PanDDA run, DMSO background map: Hit [1]: TRUE | Total number of conformations [1]: 1 | 2*(1-BDC) (%) [1]: 32% | X-ray crystallography: Binding site [1]: Adenosine | Hill slope ([2]; HTRF dose-response fit, Mac1): 1.2 | inhibition at 200 µM [2, 3]: 93% | SARS CoV-2 macrodomain HTRF assay: Hillslope [2]: 1.2 | inhibition at 200 µM [2, 4]: 93%

CCC(O)[C@H]1CCCN1c1ncnc2[nH]ccc12 (some centres unmarked) [AVI-3666]
1-BDC [1]: 0.3 | Pandda run, overall: Hit [1]: TRUE | Pandda run, overall: Modeled [1]: TRUE | PanDDA run, DMSO background map: 1-BDC [1]: 0.3 | PanDDA run, DMSO background map: Hit [1]: TRUE | Total number of conformations [1]: 1 | 2*(1-BDC) (%) [1]: 60% | X-ray crystallography: Binding site [1]: Adenosine | Hill slope ([2]; HTRF dose-response fit, Mac1): 1.3 | inhibition at 200 µM [2, 3]: 87% | IC50 ([2]; confirmatory dose-response, best fit value of 3-4 technical replicates, Fig. S3 prints the 95% confidence interval in brackets, read-out: HTRF IC50): 46 µM | SARS CoV-2 macrodomain HTRF assay: Hillslope [2]: 1.3 | Ki ([2]; dose-response, read-out: SARS CoV-2 macrodomain HTRF assay: Ki): 43 µM | inhibition at 200 µM [2, 4]: 87%

O=C(O)C(F)(F)F.OCC1(Nc2ncnc3[nH]ccc23)CCC1 [AVI-3670]
1-BDC [1]: 0.18 | X-ray crystal structure [1]: TRUE | Pandda run, overall: Hit [1]: TRUE | Pandda run, overall: Modeled [1]: TRUE | PanDDA run, DMSO background map: 1-BDC [1]: 0.18 | PanDDA run, DMSO background map: Hit [1]: TRUE | Total number of conformations [1]: 2 | 2*(1-BDC) (%) [1]: 36% | Binding site [1]: Adenosine | Hill slope ([2]; HTRF dose-response fit, Mac1): 1.2 | Hill slope [2, 5]: 1.2 | inhibition at 200 µM [2, 6]: 87% | inhibition at 200 µM [2, 4]: 87%

CN(C)CC(CO)Nc1ncnc2[nH]ccc12 (centres unmarked) [AVI-3671]
1-BDC [1]: 0.17 | X-ray crystal structure [1]: TRUE | Pandda run, overall: Hit [1]: TRUE | Pandda run, overall: Modeled [1]: TRUE | PanDDA run, DMSO background map: 1-BDC [1]: 0.17 | PanDDA run, DMSO background map: Hit [1]: TRUE | Total number of conformations [1]: 1 | 2*(1-BDC) (%) [1]: 34% | Binding site [1]: Adenosine | % competition in HTRF assay [2, 7]: neither had detectable binding

OCC(CN1CCCCC1)Nc1ncnc2[nH]ccc12 (centres unmarked) [AVI-3677]
1-BDC [1]: 0.21 | X-ray crystal structure [1]: TRUE | Pandda run, overall: Hit [1]: TRUE | Pandda run, overall: Modeled [1]: TRUE | PanDDA run, DMSO background map: 1-BDC [1]: 0.21 | PanDDA run, DMSO background map: Hit [1]: TRUE | Total number of conformations [1]: 1 | 2*(1-BDC) (%) [1]: 42% | Binding site [1]: Adenosine | % competition in HTRF assay [2, 7]: neither had detectable binding

O=C(O)C(F)(F)F.OCC1(Nc2ncnc3[nH]ccc23)CCCC1 [AVI-3692]
1-BDC [1]: 0.22 | X-ray crystal structure [1]: TRUE | Pandda run, overall: Hit [1]: TRUE | Pandda run, overall: Modeled [1]: TRUE | PanDDA run, DMSO background map: 1-BDC [1]: 0.22 | PanDDA run, DMSO background map: Hit [1]: TRUE | Total number of conformations [1]: 1 | 2*(1-BDC) (%) [1]: 44% | Binding site [1]: Adenosine | Hill slope ([2]; HTRF dose-response fit, Mac1): 1.3 | Hill slope [2, 5]: 1.3 | inhibition at 200 µM [2, 6]: 85% | inhibition at 200 µM [2, 4]: 85%

CCC(CC)(CO)Nc1ncnc2[nH]ccc12 [AVI-3695]
1-BDC [1]: 0.12 | X-ray crystal structure [1]: TRUE | Pandda run, overall: Hit [1]: TRUE | Pandda run, overall: Modeled [1]: TRUE | PanDDA run, DMSO background map: 1-BDC [1]: 0.12 | PanDDA run, DMSO background map: Hit [1]: TRUE | Total number of conformations [1]: 2 | 2*(1-BDC) (%) [1]: 24% | Binding site [1]: Adenosine | Hill slope ([2]; HTRF dose-response fit, Mac1): 1.3 | Hill slope [2, 5]: 1.3 | inhibition at 200 µM [2, 6]: 89% | inhibition at 200 µM [2, 4]: 89%

CCC(C)(CO)Nc1ncnc2[nH]ccc12 (centres unmarked) [AVI-3697]
1-BDC [1]: 0.16 | X-ray crystal structure [1]: TRUE | Pandda run, overall: Hit [1]: TRUE | Pandda run, overall: Modeled [1]: TRUE | PanDDA run, DMSO background map: 1-BDC [1]: 0.16 | PanDDA run, DMSO background map: Hit [1]: TRUE | Total number of conformations [1]: 1 | 2*(1-BDC) (%) [1]: 32% | Binding site [1]: Adenosine | Hill slope ([2]; HTRF dose-response fit, Mac1): 1.2 | Hill slope [2, 5]: 1.2 | inhibition at 200 µM [2, 6]: 91% | inhibition at 200 µM [2, 4]: 91%

Source: doi:10.1101/2024.08.25.609621 (bioRxiv, 2024)
